Measurements as given in patent US7501431B2, “Physiologically active substances PF1270A, B and C substances” (Meui Seika Kaisha, Ltd., priority 2003, dated 2009).
Where two headings read alike, the source gives them in different places.

Tests used:
[1] = target: T1, histamine H3 receptor (Rattus norvegicus, UniProt Q9QYN8); assay: N^α-methylhistamine binding inhibition test ([3H]N^α-methylhistamine, rat fore-brain membrane fraction)
T1 construct: Rat fore-brain was homogenized in 10 volumes of 0.32 M sucrose solution; from tissue; host or cells: rat fore-brain membrane fraction
Description: The PF1270A, B and C substances obtained by the invention have affinity for histamine H3 receptor. Affinity of the PF1270A, B and C substances for histamine H3 receptor was examined by a binding inhibition test of a histamine H3 receptor ligand, N^α-methylhistamine.
Test Example N^α-methylhistamine Binding Inhibition Activity
Rat fore-brain was homogenized in 10 volumes of 0.32 M sucrose solution using a Teflon-glass homogenizer, and the thus obtained homogenate was centrifuged at 1000×g for 10 minutes. The supernatant was centrifuged at 39000×g for 20 minutes to obtain the precipitate. This precipitate was washed with an assay buffer (50 mM Tris (pH 7.4), 5 mM EDTA) by centrifugation. This operation was further carried out twice, and the finally obtained membrane fraction was used as the histamine H3 receptor membrane fraction.
The binding inhibition test was carried out using the thus obtained membrane fraction and a radioactive ligand [^3H]N^α-methylhistamine (manufactured by Perkin-Elmer Life Science). In the presence of PF1270A, B or C substance, the membrane fraction (55 μg as protein) and 1 nM in final concentration of [^3H]N^α-methylhistamine were added to 150 μl of the assay buffer and incubated at room temperature for 60 minutes. This was filtered using a unifilter GF/B filter (manufactured by Perkin-Elmer) coated with 0.3% polyethyleneimine and washed three times with 200 μl of the assay buffer. After drying at 50° C. for 1 hour, 30 μl of Microscinti-20 (manufactured by Perkin-Elmer) was added thereto as the scintillator, and the radioactivity was counted using Top Count (manufactured by Perkin-Elmer). The nonspecific binding was determined by adding a large excess of thioperamide (10 μM in final concentration). The binding inhibition ratio of N^α-methylhistamine in the presence of PF1270A, B or C substance was calculated based on the following formula. […]

[2] = Solubility (physicochemical properties)
[3] = rat fore-brain histamine H3 receptor membrane fraction, 1 nM [3H]N^α-methylhistamine, room temperature 60 minutes, read-out: N^α-methylhistamine binding inhibition activity, IC50 (converted)

T1 sequence (Q9QYN8 whole entry): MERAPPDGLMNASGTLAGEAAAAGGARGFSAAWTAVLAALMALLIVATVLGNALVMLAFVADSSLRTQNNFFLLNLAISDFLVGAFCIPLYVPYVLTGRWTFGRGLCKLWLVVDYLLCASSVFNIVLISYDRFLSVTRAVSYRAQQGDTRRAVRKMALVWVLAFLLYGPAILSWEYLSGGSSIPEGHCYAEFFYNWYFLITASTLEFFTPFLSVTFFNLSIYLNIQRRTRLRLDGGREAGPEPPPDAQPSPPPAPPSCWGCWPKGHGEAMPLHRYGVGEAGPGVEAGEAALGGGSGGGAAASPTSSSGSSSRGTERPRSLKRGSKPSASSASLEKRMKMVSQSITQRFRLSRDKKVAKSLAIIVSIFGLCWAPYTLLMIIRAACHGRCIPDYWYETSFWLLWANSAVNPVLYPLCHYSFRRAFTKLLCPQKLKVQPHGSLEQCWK

Structure (SMILES) | IC50 [1] [nM] | Solubility in chloroform and methanol [2] | Solubility in water [2] | IC50 [1, 3] [nM]
CCCC(=O)OC1CC(C)N2CC3(NC)CC4(C(=O)Nc5c(C(=O)C6OC6(C)C)cccc54)C(C)(C=O)C3CC2C1 (stereo not drawn) [PF1270A] | 83.1 | soluble | hardly soluble | 
CCC(=O)OC1CC(C)N2CC3(NC)CC4(C(=O)Nc5c(C(=O)C6OC6(C)C)cccc54)C(C)(C=O)C3CC2C1 (stereo not drawn) [PF1270B] |  | soluble | hardly soluble | 399
CNC12CN3C(C)CC(OC(C)=O)CC3CC1C(C)(C=O)C1(C2)C(=O)Nc2c(C(=O)C3OC3(C)C)cccc21 (stereo not drawn) [PF1270C] |  | soluble | hardly soluble | 763
